Experimental findings from US20220356163A1, “SMALL MOLECULE INHIBITORS OF Id PROTEINS” (MEMORIAL SLOAN KETTERING CANCER CENTER, priority 2019, published 2022) are described below.

“Also recorded” adds a separate entry of the source.

For one experiment, the target named is T1, NanoLuc-ID1 (Homo sapiens, UniProt P41134).
T1 construct: expressed in transfected cells; host or cells: 293T cells, pcDNA3.1, digitonin-permeabilized
In words: NanoBRET target engagement assay in digitonin-permeabilized 293T cells. Format: cell-based. Particulars: 2 μM tracer, 0-60 μM competitor, 50 μg/mL digitonin. As to the method: NanoBRET™ target engagement assay. A N-terminal NanoLuc® luciferase ID1 fusion protein was synthesized by Genewiz (South Plainfield, N.J., USA) into the pUC57 backbone and then cloned into the pcDNA3.1 plasmid with EcoRI-HF and XbaI (both enzymes from New England Biolabs, Ipswich, Mass., USA). The assay was performed essentially as described in the NanoBRET™ TE Intracellular BET BRD Assay kit manual (Promega Corporation, Madison, Wis., USA). Briefly, cells were transfected and after 24 hours were plated onto flat bottom, non-binding surface, white, polystyrene 96-well plates (Corning Incorporated, Kennebunk, Me., USA). The AGX51 tracer was then added ([…]), followed by digitonin (Sigma, St. Louis, Mo., USA) to permeabilize the cells ([…]). The NanoBRET™ Nano-Glo® Substrate (Promega) was then added and readings taken using a GloMax Discover System instrument (Promega). For the competition assays, cells were treated with 2 μM of AGX51 tracer and 0-60 μM of AGX-A or AGX51.
This assay is based on the NanoBRET™ Target Engagement Intracellular BET BRD Assay (Promega). A construct expressing a NanoLuc® luciferase ID1 fusion protein and an AGX51-fluorescent tracer was generated (FIG. 10A). […]
For orientation: In BRET a luciferase serves as donor, and the signal depends on an acceptor being close.

The target in the next experiment is T2, Id3 (Mus musculus, UniProt P41133).
T2 construct: GST (cleaved yes); made in house; host or cells: E. coli Rosetta 2(DE3)
T2 sequence (P41133 whole entry): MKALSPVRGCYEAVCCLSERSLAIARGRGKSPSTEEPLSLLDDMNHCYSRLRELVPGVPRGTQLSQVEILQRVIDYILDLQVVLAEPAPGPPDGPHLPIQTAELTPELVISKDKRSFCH
In words: Circular dichroism (CD) of Id3. Particulars: 0 or 100 μM. The format is binding. As to the method: Id protein purification. pGEV-PSP-mId1 and mId3 expression constructs were transformed into Rosetta 2(DE3) Competent Cells (Sigma Millipore) for protein expression. To produce recombinant GST-tagged protein, a 50 mL LB/Ampicillin (100 μg/m)+Chloramphenicol (25 μg/mL) culture was grown overnight at 37° C. Early the next day, the overnight culture was diluted 1:100 into 6 L LB/Ampicillin+Chloramphenicol and cultured at 37° C. for about four hours until OD600=0.7. Cultures were induced with 1 mM IPTG and incubated at 16° C. for 16-18 hours. Cells were harvested by centrifugation at 4000 rpm for 15 minutes at 4° C. and the pellet was resuspended in lysis buffer (50 mM Tris pH 8.0; 400 mM NaCl; 0.5 mM TCEP, Protease Inhibitor Cocktail) (25 mL/L of culture). To lyse the cells, Triton X-100 and lysozyme were added to 0.1% and 10 μg/mL respectively, incubated for 30 minutes on ice and sonicated. Lysates were spun at 17,000 rpm for 30 minutes at 4° C. and supernatants were filtered through a […] filter before incubation with glutathione sepharose for two hours at 4° C. The sepharose with bound protein was run through a polypropylene column and washed twice with 50 mL wash buffer (50 mM Tris pH 8.0; 400 mM NaCl) before protein was eluted with 10 mL 50 mM glutathione elution buffer, pH 8.0. […]
On the technique in general: CD spectra are sensitive to the conformation of chiral molecules.

T1 sequence (P41134 whole entry): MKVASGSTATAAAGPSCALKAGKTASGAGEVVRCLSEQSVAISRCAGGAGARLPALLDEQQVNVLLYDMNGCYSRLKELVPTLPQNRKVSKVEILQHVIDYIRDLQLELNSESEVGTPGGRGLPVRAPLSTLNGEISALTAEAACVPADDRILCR

As to `COc1ccccc1C(CCNCc1ccccc1)c1ccc(OC(C)C)cc1` (stereo not drawn) [AGX-A, N-benzyl-3-(4-isopropoxyphenyl)-3-(2-methoxyphenyl)propan-1-anine], the “competition with AGX51 tracer” value at NanoLuc-ID1 is listed as “more efficiently; also recorded: exhibiting greater activity than AGX51; also recorded: worked at lower concentrations than AGX51”.
Turning to `CCC(=O)N(CCC(c1ccc2c(c1)OCO2)c1ccccc1OC)Cc1ccccc1` (racemic) [AGX51, N-(3-(benzo[d][1,3]dioxol-5-yl)-3-(2-methoxyphenyl)propyl)-N-benzylpropionamide], the “competition with AGX51 tracer” value on NanoLuc-ID1 is given as “could be competed with AGX51”. Besides, the “effect on Id3 secondary structure (CD)” value on Id3 is “small but reproducible effect”.
